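A five-concentration, 48-hour dose response in 96-well plates underlies each endpoint, interpolated linearly between surrounding concentrations. TGI marks complete inhibition of growth.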
What was measured:
Assay in all cases: NCI-60 cell line screen, 48 h
786-0 renal = test system: 786-0 renal
A498 renal = test system: A498 renal
CCRF-CEM leukemia = test system: CCRF-CEM leukemia
EKVX NSCLC = test system: EKVX NSCLC
OVCAR-8 ovarian = test system: OVCAR-8 ovarian
SK-OV-3 ovarian = test system: SK-OV-3 ovarian
TK-10 renal = test system: TK-10 renal
HT29 colon = test system: HT29 colon
K-562 leukemia = test system: K-562 leukemia
NCI/ADR-RES ovarian = test system: NCI/ADR-RES ovarian

Compound | TGI (786-0 renal) | TGI (A498 renal) | TGI (CCRF-CEM leukemia) | TGI (EKVX NSCLC) | TGI (OVCAR-8 ovarian) | TGI (SK-OV-3 ovarian) | TGI (TK-10 renal) | TGI (HT29 colon) | TGI (K-562 leukemia) | TGI (NCI/ADR-RES ovarian)
CC(C)[Si](Oc1ccc(CC2N(C(=O)c3ccc([N+](=O)[O-])cc3)C(CCc3ccccc3)CC2(C)C=O)cc1)(C(C)C)C(C)C (configuration not stated) | > 100 µM | > 100 µM | > 100 µM | > 100 µM | 42.5 µM | > 100 µM | > 100 µM |  |  | 
S=C1NNC2(C(=S)N1)c1ccccc1-c1ccccc12 | > 10 µM | > 10 µM | > 10 µM | > 10 µM | > 10 µM | > 10 µM | > 10 µM | > 10 µM | > 10 µM | > 10 µM
CC(C)C(CCOS(=O)(=O)O)CCC(C)[C@H]1[C@@H](O)C(O)C2[C@]3(O)C[C@@H](O)C4(O)C[C@@H](O)CC[C@]4(C)C3CC[C@@]21C (some centres not stated) | > 100 µM |  | > 100 µM | > 100 µM | > 100 µM | > 100 µM | > 100 µM | > 100 µM | > 100 µM | 
CCOc1cc2c(cc1O)C(=O)C[C@@H]1[C@@H]2CC[C@]2(C)[C@@H](O)CC[C@@H]12 | > 53.8 µM | > 29.1 µM | > 100 µM | > 100 µM | 27.1 µM | > 73.6 µM | > 100 µM | 29.9 µM | 2.27 µM | 8.27 µM
COC(=O)C1Cc2cc3c(cc2C1)CCC3 | > 100 µM | > 100 µM | > 100 µM | > 100 µM | > 100 µM | > 100 µM | > 100 µM | > 100 µM | > 100 µM | > 100 µM
O=C1N[C@H](C(=O)O)[C@@H](c2ccc(OCc3ccccc3)cc2)O1 | 65.6 µM |  | > 100 µM | 89.1 µM | 45.8 µM | > 100 µM | 84.4 µM | > 100 µM | > 100 µM | 65.3 µM
CC(C)C(=O)/C=C/c1c(Cl)cccc1Cl | 20.1 µM | 35.5 µM | > 100 µM | 26 µM | 13.6 µM | 9.27 µM | 24.5 µM | 11.2 µM | > 100 µM | 9.23 µM
C=CCOCn1cnc2c(=O)[nH]c(N)nc21 | > 100 µM | > 100 µM | > 100 µM | > 100 µM | > 100 µM | > 100 µM | > 100 µM |  | > 100 µM | > 100 µM
CCN(/N=C1\CC2C=CCN(C2)C(=O)Cc2c1[nH]c1ccccc21)S(=O)(=O)c1ccc(C)cc1 (configuration not stated) | > 100 µM |  | > 100 µM | > 100 µM | > 100 µM |  | > 100 µM |  | > 100 µM | 
O=C(CCCn1ccnc1[N+](=O)[O-])NCCn1cnc([N+](=O)[O-])n1 | > 100 µM | > 100 µM | > 100 µM |  | > 100 µM | > 100 µM | > 100 µM | > 100 µM | > 100 µM | > 100 µM
CC1CC(=O)Nc2ccccc2N1C(=O)C1CC1 (configuration not stated) | > 100 µM | > 100 µM | > 100 µM | > 100 µM | > 100 µM | > 100 µM | > 100 µM | > 100 µM | > 100 µM | 
Nc1ccc(C2SCC(=O)N2NS(=O)(=O)c2cccc(C(=O)O)c2)cc1 (configuration not stated) | > 100 µM | > 100 µM | > 100 µM | > 100 µM | > 100 µM | > 100 µM | > 100 µM | > 100 µM | > 100 µM | 
CN1CCN(c2n[nH]c(=O)c3c2nnn3C2CCCCC2)CC1 | > 100 µM | > 100 µM | > 100 µM | > 100 µM | > 100 µM |  | > 100 µM | > 100 µM | > 100 µM | > 100 µM
COc1ccc(/C=C/C(=O)CCN2CCN(CCC(=O)/C=C/c3ccc(OC)cc3)CC2)cc1 | 10.9 µM | 16.2 µM |  | 28.2 µM | 42.4 µM | 24.1 µM | 28 µM | 23.8 µM | 37.9 µM | 96 µM
COc1ccc(CNc2nc3cc(C(F)(F)F)ccc3nc2C(=O)O)cc1 | 63.2 µM | 53 µM | > 100 µM | 78.6 µM | > 100 µM | > 100 µM |  | 73.9 µM | 61.3 µM | 58.1 µM
O=C(CC(=O)N1N=C(N(c2ccccc2)c2ccccc2)CC1c1ccccc1)Nc1cccc(Cl)c1 (configuration not stated) | > 100 µM |  | > 100 µM | > 100 µM | > 100 µM | > 100 µM | > 100 µM | > 100 µM | > 100 µM | > 100 µM
CC#CC#C/C=C1\C=CC2(OC=CC2O)O1 (configuration not stated) | > 23.3 µM |  | > 21.1 µM | > 16.7 µM | > 23.3 µM | > 23.3 µM | > 23.3 µM | > 23.3 µM | > 23.3 µM | 
C/C(CCN(C)C)=N\OC(=O)c1ccccc1 | > 100 µM | > 100 µM | > 100 µM | > 100 µM | > 100 µM | > 100 µM | > 100 µM | > 100 µM | > 100 µM | 
C[C@@H]1CC[C@@]2(C)[C@H](C)/C(=C\COC(=O)/C=C/c3ccc(O)c(O)c3)CC[C@@]12C | 17.6 µM | 25.8 µM |  | 30.8 µM | 24.1 µM | 26.4 µM | 11.5 µM | 25.1 µM | 17.8 µM | 23.5 µM
Cc1ccc(S(=O)(=O)Nn2c(S)c(C#N)c(-c3ccc(Cl)cc3)c(C#N)c2=O)cc1 | > 100 µM | > 100 µM | > 100 µM | > 100 µM | 50.8 µM | > 100 µM | 76 µM |  | > 100 µM | 71.5 µM
C=C1CN2CCc3c([nH]c4ccccc34)C2CC1CC(=O)N(C)C (configuration not stated) | > 309 µM |  | > 309 µM | > 309 µM | > 309 µM | > 309 µM | > 309 µM | > 309 µM | > 309 µM | 
CCCCCCc1cc2cc(C(=O)Nc3cccc(F)c3)c(=N)oc2cc1O | 11.5 µM | 15 µM | 4.97 µM | 6.44 µM | 3.56 µM | 13.3 µM |  | 78.6 µM | 10.5 µM | 7.54 µM
O=C(Nc1ccc(Cl)cc1)c1cc(S(=O)(=O)N2CCNNC2=O)c(S)cc1Cl | > 100 µM | > 100 µM | > 100 µM | > 100 µM | > 100 µM |  | > 100 µM |  | > 100 µM | > 100 µM

From PubChem BioAssay (NCI)
